Reference: the supplement of paper PMC10307832

How the values were obtained:
Assay in all cases: relative viability (nuclei count vs DMSO), 5 days (fraction); higher = more cells survive
[1] = compound: Cc1nc(C(=O)NCC(=O)O)c(O)c2ccc(Oc3ccccc3)cc12 [FG-4592] + COc1cccc2cc(-c3nc([C@H]4CC[C@H](C(=O)O)CC4)n4ncnc(N)c34)[nH]c12 [OSI-027] (partner 0.5 µM)
Procedure, shortened: (§1)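 Dosing by pin tool came one day after lung cancer cell lines were seeded in 1536-well plates, using either one drug or a fixed anchor-drug dose plus five library-drug doses (not always all listed) in √10 steps. After 5 days, nuclei were counted on 4× images. Relative viability is treated-well nuclei count divided by vehicle-well nuclei count, and values are medians of duplicate plates.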

[2] = compound: Cc1nc(C(=O)NCC(=O)O)c(O)c2ccc(Oc3ccccc3)cc12 [FG-4592] + Nc1ncn([C@H]2C[C@H](O)[C@@H](CO)O2)c(=O)n1 [Decitabine] (partner 2 µM)
Procedure, shortened: as §1

[3] = compound: Cc1nc(C(=O)NCC(=O)O)c(O)c2ccc(Oc3ccccc3)cc12 [FG-4592] + O=C(c1cc(Cc2n[nH]c(=O)c3ccccc23)ccc1F)N1CCN(C(=O)C2CC2)CC1 [Olaparib] (partner 8 µM)
Procedure, shortened: as §1

[4] = compound: CC1=CC(=C(N1C2=CC=C(C=C2)Cl)C)C(=O)CN3CCCCC3 [IU1-47] + Nc1nc2[nH]cc(CCc3ccc(C(=O)N[C@@H](CCC(=O)O)C(=O)O)cc3)c2c(=O)[nH]1 [Pemetrexed] (partner 0.2 µM)
Procedure, shortened: as §1

Cell Line	relative viability ([1]; first compound 0.08 µM)	relative viability ([1]; first compound 0.253 µM)	relative viability ([1]; first compound 0.8 µM)	relative viability ([1]; first compound 2.53 µM)	relative viability ([1]; first compound 8 µM)	relative viability ([2]; first compound 0.08 µM)	relative viability ([2]; first compound 0.253 µM)	relative viability ([2]; first compound 0.8 µM)	relative viability ([2]; first compound 2.53 µM)	relative viability ([2]; first compound 8 µM)	relative viability ([3]; first compound 0.08 µM)	relative viability ([3]; first compound 0.253 µM)	relative viability ([3]; first compound 0.8 µM)	relative viability ([3]; first compound 2.53 µM)	relative viability ([3]; first compound 8 µM)	relative viability ([4]; first compound 0.08 µM)	relative viability ([4]; first compound 0.253 µM)	relative viability ([4]; first compound 0.8 µM)	relative viability ([4]; first compound 2.53 µM)	relative viability ([4]; first compound 8 µM)
201T	0.683	0.662	0.738	0.815	0.704	0.865	0.839	0.842	0.859	0.878	0.841	0.794	0.843	0.878	0.827	0.458	0.386	0.317	0.261	0.389
NCI-H2126	0.806	0.627	0.663	0.623	0.67	0.54	0.541	0.543	0.578	0.578	0.964	0.846	0.857	0.876	0.919	0.69	0.741	0.704	0.49	0.733
HOP-62	0.839	0.736	0.814	0.722	0.713	0.216	0.219	0.223	0.199	0.185	0.373	0.561	0.496	0.383	0.338	0.398	0.454	0.373	0.223	0.365
NCI-H520	0.234	0.285	0.286	0.257	0.205	0.454	0.443	0.493	0.577	0.434	0.361	0.342	0.303	0.391	0.385	0.548	0.711	0.831	0.847	0.577
NCI-H1755	0.661	0.649	0.727	0.737	0.693	0.697	0.773	0.736	0.679	0.689	0.873	0.837	0.762	0.907	0.799	0.434	0.439	0.825	0.454	0.445
NCI-H2023	0.402	0.359	0.428	0.356	0.241	0.231	0.209	0.222	0.243	0.203	0.402	0.471	0.437	0.464	0.35	0.22	0.232	0.246	0.208	0.204
NCI-H2009	0.591	0.565	0.621	0.476	0.605	0.406	0.339	0.381	0.343	0.349	0.663	0.637	0.715	0.718	0.621	1.1	1.05	1.01	1.08	1.05
